Values of other authors, collected in publication PMC9694544, “Conteltinib (CT-707) in patients with advanced ALK-positive non-small cell lung cancer: a multicenter, open-label, first-in-human phase 1 study” (BMC Medicine, 2022).
Where two headings read alike, the source gives them in different places.

Experiments:
ALK-positive NSCLC = conditions: cited from earlier work
[1] = test system: patients with ALK-positive NSCLC; conditions: cited from earlier work
[2] = patients who received crizotinib previously, at MTD
[3] = patients who received crizotinib previously, at the dose-expansion phase
[4] = ALK TKI-naïve patients, at RP2D
[5] = patients who received crizotinib previously, at RP2D
[6] = ALK TKI-naïve patients, at the dose around RP2D
[7] = patients who received crizotinib previously, at the dose around RP2D

For `Cc1cc(Nc2ncc(Cl)c(Nc3ccccc3S(=O)(=O)C(C)C)n2)c(OC(C)C)cc1C1CCNCC1` [ceritinib], the ORR (ALK-positive NSCLC; ALK TKI-naïve patients, at MTD) is given as 59%, the “median PFS” value (ALK-positive NSCLC; ALK TKI-naïve patients, at MTD) is given as 18.4 months and the ORR (ALK-positive NSCLC; [2]) is given as 56%. The “median PFS” value (ALK-positive NSCLC; [2]) was 6.9 months, the “incidence of grade ≥ 3 TRAEs” value [1] was 49% and the rash [1] was 13%.

For `COc1cc(N2CCC3(CCN(C)CC3)CC2)ccc1Nc1ncc(Cl)c(Nc2ccccc2P(C)(C)=O)n1` [iruplinalkib], the ORR (ALK-positive NSCLC; ALK TKI-naïve patients, at the dose-expansion phase) is given as 76.3%, the ORR (ALK-positive NSCLC; [3]) is given as 45.7% and the “median PFS” value (ALK-positive NSCLC; [3]) is given as 6.9 months. The “incidence of grade ≥ 3 TRAEs” value [1] was 35% and the rash [1] was 13%.

In the case of `COc1cc(N2CCC(N3CCN(C)CC3)CC2)ccc1Nc1ncc(Cl)c(Nc2ccccc2P(C)(C)=O)n1` [brigatinib], the ORR (ALK-positive NSCLC; [4]) is given as 100%, the “median PFS” value (ALK-positive NSCLC; [4]) is given as 30.8 months and the ORR (ALK-positive NSCLC; [5]) is given as 72%. The “median PFS” value (ALK-positive NSCLC; [5]) was 12.9 months and the “incidence of grade ≥ 3 TRAEs” value [1] was 36%.

In the case of `C[C@@H]1CN(C(=O)c2ccc(NC(=O)c3cc(O[C@H](C)c4c(Cl)ccc(F)c4Cl)c(N)nn3)cc2)C[C@H](C)N1` [ensartinib], the ORR (ALK-positive NSCLC; [6]) is listed as 80.0%, the “median PFS” value (ALK-positive NSCLC; [6]) is listed as 26.2 months and the ORR (ALK-positive NSCLC; [7]) is listed as 69.0%. For the same molecule, the “median PFS” value (ALK-positive NSCLC; [7]) was 9.0 months, the “incidence of grade ≥ 3 TRAEs” value [1] was 23% and the rash [1] was 56%. For the same molecule, the rash ([1]; grade ≥ 3) was 12%.
